l = locked nucleic acid (LNA); d = 2'-deoxy (DNA)
Columns and labels:
[1] = target: exonuclease free Klenow fragment DNA polymerase I (EFK) (Escherichia coli, UniProt P00582, D355A/E357A); details: 500 μM LNA NTP, 2 units EFK, 37° C., 3 min
Description: A primer extension assay was used to evaluate the LNA NTP's (see Example 123), ribonucleotides, as substrates for exonuclease free Klenow fragment DNA polymerase I (EFK). The assay used a ^33P 5′ end labelled 15mer primer hybridised to one of four different 24mer templates. The sequences of the primer and templates are (LNA monomer in bold):
One picomole ^33P labelled primer was hybridised to 2 picomoles of template in ×2 Klenow buffer. To this was added either 4 μM dNTPαS or 500 μM LNA NTP or a mixture of 4 μM dNTPαS and 500 μM LNA NTP. Two units of EFK DNA polymerase was added to each reaction. 2 mU inorganic pyrophosphatase was added to each of the reactions. Primer plus template plus enzyme controls were also carried out. All reactions were carried out in a total volume of 20 μl. The reactions were incubated at 37° C. for 3 min. Reactions were then stopped by the addition of 10 μl formamide EDTA stop solution. Reaction products were separated on a 19% polyacrylamide 7M urea gel and the product fragments sized by comparison with a ^33P labelled 8 to 32 base oligonucleotide ladder after exposure to Kodak Biomax autoradiography film.

[2] = target: terminal deoxynucleotidyl transferase (TdT) (Bos taurus, UniProt P06526); assay: Oligonucleotide tailing reaction with triphosphate as substrate; type: biochemical; details: 15mer primer, 25 U TdT, 32, 64 or 128 μM triphosphate, 90 min, 37° C.
Description: LNA-thymidine-5'-triphosphate (LNA-TTP) as a substrate for terminal deoxynucleotidyl transferase (TdT). In order to test the ability of the triphosphate of LNA-TTP (Example 123) to be accepted by terminal deoxynucleotidyl transferase as a substrate, an oligonucleotide tailing reaction was performed. A 15mer primer (sequence: [NT] ID NO:14) and a mixture of 8 to 32 base oligonucleotide markers were 5' end labelled with [γ^33P] ATP and T4 polynucleotide kinase. Reactions were boiled for 5 min after labelling to remove any PNK activity. Four picomoles of the labelled primer, 25 U terminal deoxynucleotidyl transferase and 32, 64 or 128 μM dTTP or LNA-TTP were incubated in 25 μl 100 mM cacodylate buffer pH 7.2, 2 mM CoCl2 and 0.2 mM 2-mercaptoethanol for 90 min at 37° C. […] Autoradiography using Biomax film was carried out on the dry gel.

[3] = system: MCF-7 human breast cancer cells
[4] = system: human MCF-7 breast cancer cells
[5] = system: MCF-7 human breast cancer cells; remark: listed apart in the source
[6] = system: Nras amplicons (Nras 910, Nras 600, Nras 200); assay: Capture of Nras PCR amplicons by immobilised probes; type: binding, human; details: native amplicons; 1 pmol probe per well
Description: Three DIG labelled amplicons from Nras sequence (ref.: Nucleic Acid Research, 1985, Vol. 13, No. 14, p 52-55) were generated by PCR amplification as follows:
PCR reaction mixture for Nras amplicons: 2.3 μl human placental genomic DNA (440 ng/μl), 50 μl 10×PCR buffer (without MgCl2 Perkin Elmer), 30 μl 25 mM MgCl2, 50 μl dNTP-mix (2 mM dATP, dCTP, dGTP and 1.8 mM dTTP), 10 μl 1 mM Dig-11-dUTP, 10 μl 25 μM forward primer, 10 μl 25 μM reverse primer, 5 μl 5 U/μl AmpliTaq Gold (Perkin Elmer) and water ad 500 μl. PCR reaction: The above mixture was made for all the Nras PCR products. The only difference being reverse primer 910 bp, 600 bp or 200 bp added once at a time. The PCR mixtures were aliquoted into ten PCR tubes each and cycled in a Perkin Elmer 9600 at the following conditions: 95° C. 3 min; 55° C. 2 min, 72° C. 3 min, 95° C. 1 min (30 cycles); 55° C. 2 min, 72° C. 10 min and 4° C. soak. 10 μl from each PCR reaction was analysed on a standard agarose gel and the expected fragments of approximately 910 bp, 600 bp and 200 bp were observed. Assay conditions: Wells of a streptavidin coated micro-titer plate (Boehringer Mannheim; binding capacity of 20 pmol biotin per well) were incubated for 1 hour in 5×SSCT (0.75 M NaCl, 75 mM citrate, pH 7.0, 0.1% Tween 20) at 37° C. with either 1 pmol of DNA Nras Cap A (biotin-5′-TTCCACAGCACAA-3′) (SEQ ID NO:37), LNA/DNA Nras Cap A (biotin-5′-TTCCACAGCACAA-3′) (SEQ ID NO:38), LNA Nras Cap A (biotin-5′-TTCCACAGCACAA-3′) (SEQ ID NO:39), DNA Nras Cap B (biotin-5′-AGAGCCGATAACA-3′) (SEQ ID NO:40), LNA/DNA Nras Cap B (biotin-5′-AGAGCCGATAACA-3′) (SEQ ID NO:41) or LNA Nras Cap B (biotin-5′-AGAGCCGATAACA-3′) (SEQ ID NO:42); LNA nucleosides in bold. The Nras Cap A capture probes capture amplicons Nras 910, Nras 600 and Nras 200. Nras Cap B capture probes capture specific amplicons Nras 910 and Nras 600. After incubation with the different capture probes, the wells were washed in 5×SSCT and 5 μl native or denatured (95° C. 5 min and 10 min on ice) DIG-labelled amplicons (Nras 910, Nras 600 or Nras 200) in 95 μl 1×SSCT (0.15 M NaCl, 15 mM citrate, pH 7.0, 0.1% Tween 20) were added per well and incubated for 1 hour at 37° C. The wells were washed three times in phosphate buffered saline (1×PBST, 0.15 M Nat, pH 7.2, 0.05% Tween 20) and incubated 30 min at 37° C. with 200 μl peroxidase labelled anti-DIG antibodies (Boehringer Mannheim, diluted 1:1000 in 1×PBST). Finally the wells were washed three times in 1×PBST and assayed for peroxidase activity by adding 100 μl of substrate solution (0.1 M citrate-phosphate buffer pH 5.0, 0.66 mg/ml ortho-phenylenediamine dihydrochloride, 0.012% H2O2) the reaction was stopped after 9 min by adding 100 μl 0.5 M H2SO4 and diluted 4 times in H2SO4 before the absorbance at 492 nm was read in a micro-titer plate reader. […] We conclude that LNA modified oligos containing mixed LNA nucleosides (A, T, G or C LNA nucleosides) function efficiently in sequence specific capture of PCR amplicons when immobilised on a solid surface. We further conclude that LNA offers a means to construct capture probes that will function efficiently in amplicon capture without prior denaturation i.e. capture by strand displacement. This ability facilitates a significant simplification of current amplicon detection formats based on DNA.

Exonuclease III = Exonuclease III (Escherichia coli, UniProt P09030); details: for full length product left after the 5 minute incubation: 10 Units Exonuclease III, 37° C., 5 min, primer hybridised to template; for full length band, % of the signal: in the absence of the enzyme
[7] = system: terminal deoxynucleotidyl transferase (TdT); assay: Tailing of primers with dATP; type: biochemical; details: 4 pmol primer, 25 U TdT, 16 μM dATP, 90 min, 37° C.
Description: The ability of terminal deoxynucleotidyl transferase (TdT) to tail LNA modified oligonucleotides depends on the design of the oligomer. The following 15mer primers and a mixture of 8 to 32 base oligonucleotide markers were 5′ end labelled with [γ^33P] ATP and T4 polynucleotide kinase (where LNA monomers are in bold):
Reactions were boiled for 5 min after labelling to remove any PNK activity. Four picomoles of each labelled primer, 25 U terminal deoxynucleotidyl transferase and 16 μM dATP were incubated in 25 μl 100 mM cacodylate buffer pH 7.2, 2 mM CoCl2 and 0.2 mM 2-mercapto-ethanol for 90 min at 37° C. The reactions were stopped by the addition of formamide stop solution and the reaction products run on a 19% polyacrylamide 7 M urea gel with the labelled markers. Autoradiography using Biomax film was carried out on the dry gel. […] Primer PZ2 (lane 5) was not extended under these reaction conditions. We conclude that the TdT enzyme will tolerate LNA monomers within the oligonucleotide, but not at the extreme 3′ end.

Nc1ncnc2c1ncn2[C@@H]1O[C@@]2(COP(=O)(O)OP(=O)(O)OP(=O)(O)O)CO[C@@H]1[C@@H]2O [LNA ATP]
incorporation into a DNA strand [1]: efficiently incorporated to give the +1 product

Nc1ccn([C@@H]2O[C@@]3(COP(=O)(O)OP(=O)(O)OP(=O)(O)O)CO[C@@H]2[C@@H]3O)c(=O)n1 [LNA CTP]
incorporation into a DNA strand [1]: efficiently incorporated to give the +1 product on Template 4

Nc1nc2c(ncn2[C@@H]2O[C@@]3(COP(=O)(O)OP(=O)(O)OP(=O)(O)O)CO[C@@H]2[C@@H]3O)c(=O)[nH]1 [LNA GTP]
incorporation into a DNA strand [1]: able to produce the +1 product with efficient extension of the primer

O=c1ccn([C@@H]2O[C@@]3(COP(=O)(O)OP(=O)(O)OP(=O)(O)O)CO[C@@H]2[C@@H]3O)c(=O)[nH]1 [LNA UTP]
incorporation into a DNA strand [1]: specifically incorporated as a “T”

Cc1cn(C2OC3(COP(=O)(O)OP(=O)(O)OP(=O)(O)O)COC2C3O)c(=O)[nH]c1=O (stereo not drawn) [LNA-TTP, LNA-thymidine-5′-triphosphate]
fraction of +1 product extended by a further base [2]: ~50% | primer extension product [2]: extended by one base

Cc1cn([C@H]2C[C@H](O)[C@@H](COP(=O)(O)OP(=O)(O)OP(=O)(O)O)O2)c(=O)[nH]c1=O [dTTP, reference compound]
primer extension product [2]: greater than 100 nucleotides

AL16: LNA oligo 5′-d(TGT GTG AAA TTG TTA T)-3′ (SEQ ID NO:57); also fluorescein/FITC-labelled (DNA TGTGTGAAATTGTTAT; LNA-containing, positions not given here, fluorescein label)
added radioactivity associated with cellular material [3]: approximately 0.8% | intracellular localisation [4]: predominantly was localised in the nuclei of the cells | number of green fluorescent cells after additional 3 days [5]: appeared unaltered

AL17: LNA oligo 5′-d(ATA AAG TGT AAA G)-3′ (SEQ ID NO:58); also fluorescein/FITC-labelled (DNA ATAAAGTGTAAAG; LNA-containing, positions not given here, fluorescein label)
added radioactivity associated with cellular material [3]: approximately 0.4%

LNA Cap B: biotin-5′-AGAGCCGATAACA-3′ (SEQ ID NO:42), spiked with 12 LNA nucleosides (12 LNA nucleosides, positions not given here, 5' biotin)
capture of specific amplicons without prior denaturation [6]: capture very efficiently the specific amplicons without prior denaturation

LNA Nras Cap A: biotin-5′-TTCCACAGCACAA-3′ (SEQ ID NO:39), spiked with 12 LNA nucleosides (LNA nucleosides spiked in, positions not given here, 5' biotin)
capture of specific amplicons without prior denaturation [6]: capture very efficiently the specific amplicons without prior denaturation

LNA/DNA Nras Cap A: biotin-5′-TTCCACAGCACAA-3′ (SEQ ID NO:38), spiked with 4 LNA nucleosides (LNA nucleosides spiked in, positions not given here, 5' biotin)
capture of specific amplicons without prior denaturation [6]: capture the same amplicons with a lower efficiency

LNA/DNA Nras Cap B: biotin-5′-AGAGCCGATAACA-3′ (SEQ ID NO:41), spiked with 4 LNA nucleosides (LNA nucleosides spiked in, positions not given here, 5' biotin)
capture of specific amplicons without prior denaturation [6]: capture the same amplicons with a lower efficiency

ODN#10: oligodeoxynucleotide (SEQ ID NO:56), a 35-mer complementary to human Cathepsin D (DNA TTAACGTAGGTGCTGGACTTGTCGCTGTTGTACTT; DNA, backbone and methylation of C not given here) [reference compound]
added radioactivity associated with cellular material [3]: approximately 1.4%

P2: 5′-GC ATG TGC TGG AGA T-3′ (SEQ ID NO: 11), DNA primer (DNA GCATGTGCTGGAGAT; DNA, backbone and methylation of C not given here) [reference compound]
full length product left after the 5 minute incubation (Exonuclease III): 20% | full length band, % of the signal (Exonuclease III): 99%

PZ2: 5′-GC ATG TGC TGG AGA T-3′ (SEQ ID NO: 13), single LNA monomer at the 3′ end (DNA GCATGTGCTGGAGAT; sugars from the 5' end d14 l1, backbone and methylation of C not given here)
tail length [7]: not extended | full length product left after the 5 minute incubation (Exonuclease III): 62% | full length band, % of the signal (Exonuclease III): 96%

From patent US8080644B2, “Oligonucleotide analogues” (Exiqon A/S, priority 1997, dated 2011)
